We go through six compounds from EP0536419B1, “TRICYCLIC TRIAZOLE DERIVATIVES, PRODUCTION AND USE THEREOF” (TORAY INDUSTRIES, INC., priority 1991, dated 1992).

The subject of assay [1] is passive cutaneous anaphylaxis (PCA). Kind of assay: Test for antiallergic action: rat passive cutaneous anaphylaxis (PCA) reaction. In kind it is in vivo. The settings on record: rats, oral, 50 mg/kg in olive oil, 1 hour before antigen challenge, read-out: Inhibition Rate (%) Anti-PCA. The method, then: The antiallergic action was evaluated by passive cutaneous anaphylaxis (PCA) test using rats. The test was carried out using Wister male rats having body weights of 150 - 200 g. Physiological saline containing anti-dinitrophenyl group (DNP) mouse IgE monoclonal antibody (commercially available from Seikagaku Kogyo Co., Ltd.) was intracutaneously injected in the skin of the back of each rat. Twenty three hours later, a suspension of the test compound in olive oil was orally administered at a dose of 50 mg/kg to each rat. One hour later, 0.5 ml of physiological saline containing 2 mg/ml of ovalbumin modified with dinitrophenyl hapten and 1% Evans blue were administered to each rat via femoral vein. Thirty minutes later, the rat was killed by cutting the carotid artery. The skin was peeled off and the portion stained in blue was cut out. The cut out portion was minced in […] and the pigment was extracted at 60°C for 48 hours. The minced skin was removed by centrifugation (1500 x g, 10 min.) and the absorbance at 620 nm of the supernatant was measured. Based on a preliminarily prepared calibration curve, the pigment leaked to the topical portion was quantified. As a control, olive oil alone was administered and the ratio of the amount of the pigment in test groups to the amount of the pigment in control group is expressed as inhibition rate.

In a further assay the test system is histamine. In words: Histamine-antagonizing action: histamine-induced skin pigment leakage in rats. In kind it is in vivo. The conditions noted are these: Rattus norvegicus, oral, 50 mg/kg in olive oil, 1 hour before intracutaneous histamine (50 µl of 900 µM), read-out: Inhibition Rate (%) Antihistamine. The method, then: A suspension of a test compound in olive oil was orally administered at a dose of 50 mg/kg to each rat of the same kind as those used in 1. One hour later, physiological saline containing 1% Evans blue was intravenously administered at a dose of 3 ml/kg. Immediately thereafter, 50 µl of 900 µM histamine solution was intracutaneously administered to each rat. Thirty minutes later, the pigment in the blue-stained portion in the skin was extracted and quantified as mentioned above. Using the amount of the pigment when olive oil was administered as control, the inhibition rate which is the ratio of the amount of the pigment when the test compound was administered to the control was calculated.

The target in a further assay is T1, PAF receptor (Oryctolagus cuniculus, UniProt G1TEI7).
T1 construct: Cell membrane fraction of rabbit platelets was prepared; from tissue; host or cells: rabbit platelets (cell membrane fraction)
T1 sequence (G1TEI7 1-342): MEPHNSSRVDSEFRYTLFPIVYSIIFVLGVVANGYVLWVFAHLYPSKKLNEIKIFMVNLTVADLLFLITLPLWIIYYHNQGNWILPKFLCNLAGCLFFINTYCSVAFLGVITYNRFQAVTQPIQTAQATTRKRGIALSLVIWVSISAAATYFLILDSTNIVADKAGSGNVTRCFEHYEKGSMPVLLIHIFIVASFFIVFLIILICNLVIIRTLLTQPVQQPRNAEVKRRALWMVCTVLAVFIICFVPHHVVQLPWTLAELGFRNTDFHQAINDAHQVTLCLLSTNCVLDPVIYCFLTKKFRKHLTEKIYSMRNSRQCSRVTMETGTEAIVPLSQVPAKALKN
In words: Binding test using [3H]-PAF (PAF receptor binding test). The arrangement: species or system rabbit.

The subject of assay [2] is PAF-induced Bronchial Hyperresponsiveness. In words: PAF-induced bronchial hyperresponsiveness model in guinea pigs. The conditions noted are these: oral, ratio of Ach threshold value after/before PAF inhalation. In kind it is in vivo. The method, then:
The test was carried out using Hartley male guinea pigs having body weights of 300 - 400 g.
Guinea pigs were retained on body plethysmo boxes without anesthesia and the respiratory resistances (Rrs) were determined by osscilation method. […] The Ach threshold value which is required for the Rrs to reach 1.5 cm H2O/ml/sec was determined. […] The Ach threshold value means the value calculated taking the value when a guinea pig is made to inhale 1000 ug/ml of Ach aerosol for 1 minute as 1 unit. The above-described operation was carried out using Animal Ast (registered trademark) commercially available from Chest M. I. Co., Ltd.
By the method of A), the bronchial responsiveness of guinea pigs, that is, the Ach threshold values were determined. Subsequently, each animal was made to inhale aerosol of 100 µg/ml of PAF solution for 10 minutes. Forty minutes after the completion of the inhalation, the bronchial responsiveness was again measured by the method of A). The bronchial hyperresponsiveness was detected based on the ratio between the Ach threshold value before and after the inhalation of PAF (Ach respiration threshold value after inhalation of PAF/Ach respiration threshold value before inhalation of […]; Post/Pre value). That is, if the bronchial hyperresponsiveness is strongly promoted, the Post/Pre value is lower than 1.0, and if it is not promoted, the Post/Pre value is about 1.0. A suspension of a test compound in olive oil was orally administered to each guinea pig and the determined Post/Pre value was compared with that of the control group to which olive oil was administered to evaluate the inhibition effect. […]

The target of a further assay is rabbit platelets (Oryctolagus cuniculus, UniProt G1TEI7). Kind of assay: in vitro platelet agglutination inhibition test (PAF-induced). In kind it is cell-based. The conditions noted are these: rabbit platelet-rich plasma, PAF final concentration 10 ng/ml, 37°C; read-out: PAF-Induced Platelet Aggregation IC50 (converted).
rabbit platelets, sequence (G1TEI7 1-342): as above
Setting [3] is: rabbit platelet membrane fraction, [3H]-PAF 0.4 nM, 25°C, 60 minutes, read-out: Receptor Binding Inhibition IC50 (converted).

Counter-ions that a name gives are not always drawn. Like-named read-outs stand apart in the source and are kept apart here.

Procedure for PAF receptor: Binding Test Using [^3H]-PAF (PAF receptor binding test)
Cell membrane fraction of rabbit platelets was prepared in accordance with the method by Hwang et al (Biochemistry; 22; 4756, (1983)). In 10 mM Tris buffer containing 0.25% bovine serum albumin, 50 mg of this membrane fraction was suspended and tritium-labelled PAF [^3H]-PAF; 0.4 nM) and a test compound were added thereto. After incubating the resulting mixture at 25°C for 60 minutes, the mixture was subjected to filtration through a filter paper made of glass fibers. The filter paper was washed with cold Tris buffer three times and then transferred to a vial. A scintillator was added thereto and the dose of radioactivity was measured with a liquid scintillation counter. The inhibition rate (binding ability) of the test compound was calculated according to the following equation and IC50 values were determined by interpolation. Inhibition Rate (%) = {1 - [((A - B))/((C - B))]} x 100 [formula] (wherein A represents amount bound in the presence of the compound, B represents amount bound by non-specific binding which is the dose of [^3H]-PAF bound radioactivity in the presence of 1 µM of PAF, and C represents total amount bound which is the dose of [^3H]-PAF bound radioactivity.
As a control agent, WEB2086 (Japanese Laid-open Patent Application (Kokai) No. 65-176591) disclosed as a PAF-antagonist was used.
Procedure for rabbit platelets: To determine the PAF-antagonizing property of the compounds, the PAF-induced agglutination of rabbit platelets in vitro is utilized. To obtain platelet-rich plasma (PRP), venous blood is taken from rabbit auricular vein into a plastic centrifugal tube containing 1.0% sodium citrate solution. The ratio of sodium citrate solution to blood is 1:10. The obtained citrate-containing blood is centrifuged at 70 x g (625 rpm) at room temperature for 20 minutes and the PRP in the upper layer is transferred to another plastic tube. The remaining lower layer is further centrifuged at 1500 x g (2800 rpm) for 10 minutes and the platelet poor plasma (PPP) in the upper layer is recovered. The platelet agglutination is measured by using aggregometer commercially available from Niko Bioscience, Inc. An aliquote of the PRP is poured into a cubette for measurement. Immediately thereafter, aspirin, creatinin phosphate and creatinin phosphokinase are added to final concentrations of 0.1 mM, 7 mM and 45 U/ml, respectively. Then a solution of a test compound is added and the resulting mixture is stirred at 37°C for 2 minutes. To the resultant, PAF (final concentration: 10 ng/ml) is added to induce platelet aggregation. The platelet aggregation rate is calculated from the relative maximum value in each aggregation curve taking the transmittance of PPP as the maximum aggregation (100% aggregation). Using the aggregation rate when physiological saline was added as a control, the inhibition rate which was the ratio of the aggregation rate when the test compound was added to the control was calculated and the IC50 values were determined by interpolation.

With `Cc1nnc2n1-c1ccccc1N(CCCN1CCC(=C(c3ccccc3)c3ccccc3)CC1)C2` [Compound 46, 4,5-dihydro-1-methyl-5-[3-[4-(diphenylmethylene)piperidin-1-yl]propyl] [1,2,4]triazolo[4,3-a]quinoxaline], the values for the inhibition at 50 mg/kg (in assay [1]; with histamine) were 65% and 72%, respectively. For the same compound, the IC50 at PAF receptor (setting [3]) is 378 nM. Besides, the figures for the Post/Pre in assay [2] (Dose 0.1 mg/kg) and in assay [2] (Dose 0.3 mg/kg) were 1.14 and 1.64, respectively.
Turning to `Cc1nnc2n1-c1ccccc1N(CCCN1CCC(Nc3nc4ccccc4n3Cc3ccc(F)cc3)CC1)C2` [Compound 73, 4,5-dihydro-1-methyl-5-[3-[4-[1-(4-fluorobenzyl)benzimidazol-2-ylamino]-piperidin-1-yl]propyl][1,2,4]triazolo[4,3-a] quinoxaline], the IC50 was 5630 nM at PAF receptor (setting [3]) and 8170 nM at rabbit platelets. Besides, the Post/Pre in assay [2] (Dose 1 mg/kg) was determined as 1.18.
In the case of `Cc1nnc2n1-c1sc(CCC(=O)N3CCOCC3)cc1C(c1ccccc1Cl)=NC2` [WEB2086, reference compound], the 50% inhibitory concentration (IC50) at PAF receptor was 110 nM. In addition, in assay [2] (Dose 3 mg/kg), the Post/Pre was determined as 0.89.
Consider `Cc1nnc2n(CCCN3CCC(c4c[nH]c5ccccc45)CC3)c3ccccc3n12.O=C(O)/C=C/C(=O)O` [Compound 192, 3-methyl-9-[3-[4-(3-indolyl)piperidin-1-yl]propyl]-9H-[1,2,4]triazolo[4,3-a]benzimidazole fumaric acid salt], for which, in assay [1], the inhibition at 50 mg/kg was 74%. Moreover, the IC50 on PAF receptor (setting [3]) is 1310 nM. In addition, the Post/Pre in assay [2] (Dose 1 mg/kg) was 1.81.
As for `CCc1nnc2n1-c1ccccc1N(CCCN1CCC(c3c[nH]c4ccccc34)CC1)C2` [Compound 52, 1-ethyl-4,5-dihydro-5-[3-[4-(3-indolyl)piperidin-1-yl]propyl] [1,2,4]triazolo[4,3-a]quinoxaline], the inhibition at 50 mg/kg in assay [1] turned out to be 65%; with histamine, 47%. The half-maximal inhibitory concentration (IC50) is 7940 nM on PAF receptor (setting [3]) and 12300 nM on rabbit platelets. The Post/Pre in assay [2] (Dose 1 mg/kg) is 1.37.
With `Cc1nnc2n1-c1ccccc1N(CCCN1CCC(C(O)(c3ccc(F)cc3)c3ccc(F)cc3)CC1)C2` [Compound 75, 4,5-dihydro-1-methyl-5-[3-[4-[hydroxybis(4-fluorophenyl)methyl]piperidin-1-yl]propyl][1,2,4]triazolo[4,3-a] quinoxaline tartaric acid salt], the values for the inhibition at 50 mg/kg (in assay [1]; with histamine) were 42% and 19%, respectively. Besides, the half-maximal inhibitory concentration (IC50) is 603 nM on PAF receptor (setting [3]) and 309 nM at rabbit platelets.
